According to the supplement of paper PMC10307832:

Tests used:
MK-2206 + Trametinib = compound: NC1(c2ccc(-c3nc4ccn5c(=O)[nH]nc5c4cc3-c3ccccc3)cc2)CCC1 [MK-2206] + CC(=O)Nc1cccc(-n2c(=O)n(C3CC3)c(=O)c3c(Nc4ccc(I)cc4F)n(C)c(=O)c(C)c32)c1 [Trametinib] (partner 0.02 µM); assay: relative viability (nuclei count vs DMSO), 5 days (fraction); higher = more cells survive
Summary of the method: (§1)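 The day after seeding in 1536-well plates, lung cancer cell lines were treated by pin tool with a single drug, or with a fixed anchor-drug dose together with five library-drug doses (not always all listed) in √10 steps. After 5 days, a combined fix-and-stain solution (final 0.05% Triton X-100, 1% formaldehyde, 1 ug/ml Hoechst) was added. Nuclei counted on 4× images gave relative viability as treated counts over vehicle counts, reported as the median of duplicate plates.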

Pictilisib + Decitabine = compound: CS(=O)(=O)N1CCN(Cc2cc3nc(-c4cccc5[nH]ncc45)nc(N4CCOCC4)c3s2)CC1 [Pictilisib] + Nc1ncn([C@H]2C[C@H](O)[C@@H](CO)O2)c(=O)n1 [Decitabine] (partner 2 µM); assay: as above
Summary of the method: as §1

Cell Line	relative viability (MK-2206 + Trametinib; first compound 0.01 µM)	relative viability (MK-2206 + Trametinib; first compound 0.03162 µM)	relative viability (MK-2206 + Trametinib; first compound 0.3162 µM)	relative viability (MK-2206 + Trametinib; first compound 1 µM)	relative viability (Pictilisib + Decitabine; first compound 0.02 µM)	relative viability (Pictilisib + Decitabine; first compound 0.06325 µM)	relative viability (Pictilisib + Decitabine; first compound 0.6325 µM)	relative viability (Pictilisib + Decitabine; first compound 2 µM)
NCI-H358	0.146	0.145	0.132	0.117	0.199	0.199	0.18	0.115
H3255	0.523	0.618	0.493	0.502	0.667	0.521	0.466	0.342
LCLC-103H	0.691	0.635	0.666	0.659	0.705	0.77	0.55	0.617
NCI-H2347	0.325	0.262	0.284	0.263	0.663	0.658	0.579	0.502
LK-2	0.826	0.775	0.694	0.602	0.238	0.302	0.197	0.163
NCI-H2342	0.909	0.8	0.664	0.682	0.736	0.672	0.688	0.445
HCC-15	0.362	0.387	0.309	0.295	0.668	0.609	0.406	0.369
SW 1573	0.608	0.516	0.444	0.489	0.688	0.587	0.354	0.285
NCI-H838	0.504	0.507	0.498	0.354	0.474	0.492	0.381	0.371
RERF-LC-KJ	0.808	0.903	0.725	0.718	0.711	0.618	0.54	0.479
ChaGo-K-1	0.894	0.867	0.881	0.904	0.526	0.51	0.491	0.495
NCI-H441	0.532	0.447	0.28	0.333	0.263	0.234	0.265	0.281
NCI-H2170	0.943	0.898	0.878	0.87	0.46	0.445	0.462	0.366
PC-14	0.557	0.876	0.516	0.704	0.245	0.254	0.302	0.322
NCI-H2009	0.252	0.299	0.248	0.254	0.443	0.406	0.412	0.329
NCI-H1395	1.02	1.16	0.804	0.897	0.708	0.798	0.652	0.5
NCI-H1437	0.577	0.51	0.44	0.403	0.499	0.534	0.536	0.438
NCI-H647	0.457	0.473	0.429	0.364	0.308	0.389	0.276	0.236

Cell Line	relative viability (MK-2206 + Trametinib; first compound 0.01 µM)	relative viability (MK-2206 + Trametinib; first compound 0.03162 µM)	relative viability (MK-2206 + Trametinib; first compound 0.3162 µM)	relative viability (MK-2206 + Trametinib; first compound 1 µM)	relative viability (Pictilisib + Decitabine; first compound 0.02 µM)	relative viability (Pictilisib + Decitabine; first compound 0.06325 µM)	relative viability (Pictilisib + Decitabine; first compound 0.6325 µM)	relative viability (Pictilisib + Decitabine; first compound 2 µM)
NCI-H1793	0.4	0.433	0.298	0.391	0.436	0.518	0.343	0.239
SK-MES-1	0.519	0.47	0.467	0.515	0.351	0.388	0.359	0.339
NCI-H2087	0.246	0.211	0.176	0.133	0.212	0.344	0.189	0.151
BEN	1.17	1.2	1.23	1.05	0.659	0.776	0.806	0.554
NCI-H3122	0.237	0.234	0.198	0.211	0.443	0.412	0.287	0.115
LCLC-97TM1	0.195	0.205	0.191	0.206	0.244	0.238	0.169	0.18
NCI-H2228	0.375	0.433	0.284	0.448	–	–	–	–
COR-L23	0.547	0.558	0.522	0.476	0.443	0.474	0.402	0.372
EMC-BAC-2	0.863	0.799	0.78	0.673	0.967	0.978	0.838	0.653
NCI-H1944	0.405	0.41	0.392	0.385	0.423	0.352	0.391	0.315
A-427	0.819	0.748	0.666	0.62	0.579	0.492	0.486	0.453
NCI-H520	0.833	0.569	0.277	0.187	0.492	0.478	0.237	0.168
NCI-H650	0.981	0.98	1.03	0.991	0.336	0.297	0.318	0.411
COR-L 105	0.451	0.439	0.381	0.433	0.681	0.656	0.62	0.541
NCI-H1755	0.756	0.768	0.671	0.699	0.743	0.667	0.748	0.565
NCI-H2085	0.527	0.52	0.292	0.36	0.521	0.631	0.511	0.369
NCI-H2023	0.514	0.532	0.38	0.376	0.211	0.2	0.215	0.148
HOP-62	0.381	0.368	0.334	0.328	0.215	0.283	0.267	0.329
